Molecules are shown by their SMILES. Where two headings read alike, the source gives them in different places.

The subject of one assay is HS766T cells. Description: apoptosis by PI FACS analysis, HS766T. The assay is classed as cell-based, human. The note with it: combination treatment with Salinosporamide A, increased from 4%. The text has this:
(§1) Novel diterpene inhibitors of NFκB derived from acanthoic acid (NPI-1342 (Formula IIB-a1) and NPI-1387; compound 24 under scheme 4 above) show measurable effects in human pancreatic cancer cell lines in vitro. Seven of the nine cell lines were moderately sensitive to apoptosis induced by death receptor ligand Tumor Necrosis Factor (TNF) related apoptosis-inducing ligand (TRAIL). […] Specific silencing of NFkB/p65 expression mimicked these effects. Furthermore, combination treatment of Salinosporamide A and either NPI-1342 or NPI-1387 led to induction of apoptosis as measured by PI FACS analysis. Specifically, levels of DNA fragmentation increased from 4% to 50% in HS766T cells and from 4% to 52% in Panc1 cells. The inhibitory effects of NPI-1342, NPI-1387 on NFκB were evaluated by Electromobility Shift Assays and confirmed by confocal microscopy.

The next assay has as its system U266 (MM). Description: 48 hr cytotoxicity, U266. Format: cell-based, human. Here is the method: (§2) B16-F10 (ATCC; CRL-6475), DU 145 (ATCC; HTB-81), HEK293 (ATCC; CRL-1573), HT-29 (ATCC; HTB-38), LoVo (ATCC; CCL-229), MDA-MB-231 (ATCC; HTB-26), MIA PaCa-2 (ATCC; CRL-1420), NCI-H292 (ATCC; CRL-1848), OVCAR-3 (ATCC, HTB-161), PANC-1 (ATCC; CRL-1469), PC-3 (ATCC; CRL-1435), RPMI 8226 (ATCC; CCL-155) and U266 (ATCC; TIB-196) are maintained in appropriate culture media. The cells are cultured in an incubator at 37° C. in 5% CO2 and 95% humidified air.
(§3) For cell growth inhibition assays, B16-F10, DU 145, HEK293, HT-29, LoVo, MDA-MB-231, MIA PaCa-2, NCI-H292, OVCAR-3, PANC-1, PC-3, RPMI 8226 and U266 cells are seeded at 1.25×10^3, 5×10^3, 1.5×10^4, 5×10^3, 5×10^3, 1×10^4, 2×10^3, 4×10^3, 1×10^4, 7.5×10^3, 5×10^3, 2×10^4, 2.5×10^4 cells/well respectively in 90 μl complete media into Corning 3904 black-walled, clear-bottom tissue culture plates. 20 mM stock solutions of compounds of Formula II, IIA, and IIB are prepared in 100% DMSO, aliquoted and stored at −80° C. Compounds of Formula II, IIA, and IIB are serially diluted and added in triplicate to the test wells resulting in final concentrations ranging from of 20 μM to 0.2 pM. […]
(§4) Following 48 hours of drug exposure, 10 μl of 0.2 mg/ml resazurin (obtained from Sigma-Aldrich Chemical Co.) in Mg^2+, Ca^2+ free phosphate buffered saline is added to each well and the plates are returned to the incubator for 3-6 hours. Since living cells metabolize Resazurin, the fluorescence of the reduction product of Resazurin is measured using a Fusion microplate fluorometer (Packard Bioscience) with λex=535 nm and λem=590 nm filters. […]
(§5) The cytotoxicity assays were performed by seeding individual cell lines at appropriate density in the 96 well flat-bottomed plates and allowed to attach for 24 hours at 37° C., 5% CO2 and 95% humidified air (RPMI 8226 and U266 cells were plated in 96 well plates on the day of compound addition). […] Cell viability was assessed 48 hours later by measuring the fluorescence of the reduction product of Resazurin by a Fusion microplate fluorometer (PerkinElmer) with λex=535 nm and λem=590 nm filters. […]

The test system of a further assay is Panc1 cells. Description: apoptosis by PI FACS analysis, Panc1. Format: cell-based, human. As to conditions: combination treatment with Salinosporamide A, increased from 4%.
Source text: as §1

Another assay has as its system MDA-MB-231 (Breast). Description: 48 hr cytotoxicity, MDA-MB-231. Format: cell-based, human. The method, then:
as §2, §3, §4, §5

In assay [1] the test system is NF-κB DNA binding activity. Nature of the assay: NF-κB DNA binding activity, EMSA, RPMI 8226. The assay is classed as cell-based. The note with it: LPS.
The next assay concerns HT-29 (Colon). Nature of the assay: 48 hr cytotoxicity, HT-29. The assay is classed as cell-based, human. Here is the method:
Human colon adenocarcinoma HT-29 (ATCC# HTB-38), prostate adenocarcinoma PC-3 (ATCC# CRL-1435), breast adenocarcinoma MDA-MB231 (ATCC# HTB-26), Multiple Myeloma RPMI 8226 (ATCC# CCL-155) and U266 (ATCC # TIB-196) cell lines and human normal fibroblast CCD-27sk (ATCC# CRL-1475) were all purchased from ATCC (Manassas, Va.). The cells were maintained in their respective ATCC recommended culture media at 37° C., 5% CO2 and 95% humidified air.
The cytotoxicity assays were performed by seeding individual cell lines at appropriate density in the 96 well flat-bottomed plates and allowed to attach for 24 hours at 37° C., 5% CO2 and 95% humidified air (RPMI 8226 and U266 cells were plated in 96 well plates on the day of compound addition). Serially diluted NPI-1387 was added in triplicate to cells at concentrations ranging from 160 nM to 20 μM. Final concentration of 0.25% (v/v) DMSO was used as the vehicle control. Cell viability was assessed 48 hours later by measuring the fluorescence of the reduction product of Resazurin by a Fusion microplate fluorometer (PerkinElmer) with λex=535 nm and λem=590 nm filters. The IC50 values (the drug concentration at which 50% of the maximal observed cytotoxicity is established) were calculated in XLFit 3.0 or XLFit 4.0 (ID Business Solutions Ltd) using a sigmoidal dose response model.

For assay [2], the system named is cells obtained from Bortezomib-refractory MM patient. Description: viability of purified patient MM cells. Format: cell-based. The note with it: in vitro. The text has this:
Besides nuclear condensation, NF-KB inhibitor triggered proteolytic cleavage of poly (ADP ribose) polymerase (PARP), a hallmark of apoptosis.

Another assay deals with Panc1 and HS766T. Description: TRAIL resistance of human pancreatic cancer cell lines. The assay is classed as cell-based.
Source text: as §1

For assay [3], the system named is Bcl-2-overexpressing MM.1S cells. Nature of the assay: viability of Bcl-2-overexpressing MM.1S cells. The assay is classed as cell-based. As to conditions: 48 hours; 0, 12, 25 and 50 uM. The method, then: Two cell-based assays were treated with NPI-1387 for 48 hours at concentrations of 0, 12, 25 and 50 uM. Both Bcl-2-overexpressing MM.1S cells and bortezomib-resistant DHL-4 lymphoma cells were used and the percentage of viable cells of each was recorded. […] (See FIG. 67).

The subject of another assay is LPS/D-Gal administration. Nature of the assay: mortality after LPS/D-Gal administration. Format: in vivo. The note with it: i.p., TTL3 administration 45 minutes prior to LPS.

On to `C=CC(=O)C1(C)CCCC2(C)C3=CCC(C)(C=C)C[C@@H]3CC[C@H]12` (stereo in doubt) [NPI-1387, 1-[(1S,4aS,7R)-1,4a,7-Trimethyl-7-vinyl-1,2,3,4,4a,6,7,8,8a,9,10,10a-dodecahydro-1-phenanthrenyl]-2-propen-1-one], for which the “levels of DNA fragmentation” value in the assay on HS766T cells came to 50%; in the assay with Panc1 cells it was 52%. Besides, the IC50 in the assay on U266 (MM) was found to be 7 ± 1.9 µM; in the assay on U266 (MM) (Homo sapiens, U-266, 48 h), 8.7 ± 6.4 µM; in the assay with MDA-MB-231 (Breast) it was 15 ± 4 µM; in the assay on MDA-MB-231 (Breast) (Homo sapiens, MDA-MB-231, 48 h), 18 ± 2 µM; in the assay on HT-29 (Colon) it was 13 ± 6 µM; in the assay on HT-29 (Colon) (Homo sapiens, HT-29, 48 h), 14 ± 6 µM. Further, in assay [1], the “NF-κB DNA binding activity” value is on record as “inhibits the DNA binding activity of NF-κB in a dose-dependent manner”. Moreover, the “viability of cells from Bortezomib-refractory MM patient” value in assay [2] is reported as “decreases the viability”. The TRAIL resistance result in the assay with Panc1 and HS766T was “reversed TRAIL resistance”. Besides, the “percentage of viable cells” value in assay [3] is recorded as “marked decrease in the percentage of viable cells”.

As for `C=C[C@@]1(C)CCC=C2[C@H]1CC[C@@H]1[C@](C)(C(=O)OC)CCC[C@@]21C` [TTL3], in the assay on LPS/D-Gal administration, the “Mortality 24 hours” value is 2/10 and the “Mortality 48 hours” value is on record as 2/10.

The values are drawn from US7893299B2, “Interleukin-1 and tumor necrosis factor-αmodulators; syntheses of such modulators and methods of using such modulators” (Nereus Pharmaceuticals, Inc., priority 2005, dated 2011).
